Test results as given in the supplement of paper PMC9663587.

How the values were obtained:
Assay in all cases: area over the GR curve, 72 h; higher = more effect;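 further: Dye Drop or Deep Dye Drop imaging of viable cells in 384-well plates (Hoechst nuclei, LIVE/DEAD dye), nine half-log doses, GR normalized to DMSO controls and time-zero plates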
UACC812 = tested on: UACC812
HCC1187 = tested on: HCC1187
MDAMB436 = tested on: MDAMB436
SUM190PT = tested on: SUM190PT
UACC893 = tested on: UACC893
HCC1937 = tested on: HCC1937
ZR751 = tested on: ZR751
HCC1143 = tested on: HCC1143
CAL51 = tested on: CAL51
MDAMB330 = tested on: MDAMB330
BT20 = tested on: BT20
SUM229PE = tested on: SUM229PE
ZR7530 = tested on: ZR7530
CAL851 = tested on: CAL851

| SMILES | area over the GR curve (UACC812) [GR] | area over the GR curve (HCC1187) [GR] | area over the GR curve (MDAMB436) [GR] | area over the GR curve (SUM190PT) [GR] | area over the GR curve (UACC893) [GR] | area over the GR curve (HCC1937) [GR] | area over the GR curve (ZR751) [GR] | area over the GR curve (HCC1143) [GR] | area over the GR curve (CAL51) [GR] | area over the GR curve (MDAMB330) [GR] | area over the GR curve (BT20) [GR] | area over the GR curve (SUM229PE) [GR] | area over the GR curve (ZR7530) [GR] | area over the GR curve (CAL851) [GR] | area over the GR curve (MDAMB436; main component drawn) [GR] | area over the GR curve (HCC1937; main component drawn) [GR] | area over the GR curve (HCC1143; main component drawn) [GR] | area over the GR curve (CAL51; main component drawn) [GR] | area over the GR curve (BT20; main component drawn) [GR] | area over the GR curve (CAL851; main component drawn) [GR] |
| --- | --- | --- | --- | --- | --- | --- | --- | --- | --- | --- | --- | --- | --- | --- | --- | --- | --- | --- | --- | --- |
| CNc1nc(-c2ccc3c(N)n[nH]c3c2)cc(N2C[C@@H](C(=O)NC3CCCCC3)CC[C@H]2C)n1 (max 10 µM) | 0.367 | -0.283 | 0.0007 | 0.292 | 0.137 | 0.146 | 0.257 | 0.0906 | 0.0516 | 0.498 | 0.0701 | 0.0671 | 0.408 | 0.201 | – | – | – | – | – | – |
| CCOc1cc2ncc(C#N)c(Nc3ccc(OCc4ccccn4)c(Cl)c3)c2cc1NC(=O)/C=C/CN(C)C [Neratinib/HKI272] (max 3.162 µM) | 1.03 | 0.181 | 0.188 | 0.0652 | 1.17 | 0.171 | 0.0964 | 0.238 | 0.091 | 1.18 | 0.147 | 0.24 | 1.08 | 0.538 | – | – | – | – | – | – |
| Cc1cc(C(C)Nc2ccccc2)c2nc(N3CCOCC3)cc(=O)n2c1 (stereo not drawn) [TGX221] (max 10 µM) | 0.523 | 0.305 | -0.0103 | -0.0619 | -0.111 | 0.0193 | 0.354 | 0.0331 | -0.0117 | -0.0042 | -0.0612 | -0.0167 | -0.0239 | -0.0591 | – | – | – | – | – | – |
| CN(C)C/C=C/C(=O)Nc1ccc(C(=O)Nc2cccc(Nc3cc(-c4c[nH]c5ccccc45)ncn3)c2)cc1 [THZ-P1-2] (max 10 µM) | 0.0711 | 0.331 | 0.272 | 0.478 | 0.573 | 0.288 | 0.0386 | 0.216 | 0.0155 | 0.592 | 0.137 | 0.149 | 0.474 | 0.217 | – | – | – | – | – | – |
| Cc1c(N)nc([C@H](CC(N)=O)NC[C@H](N)C(N)=O)nc1C(=O)N[C@H](C(=O)N[C@H](C)[C@@H](O)[C@H](C)C(=O)N[C@H](C(=O)NCCc1nc(-c2nc(C(=O)NCCC[S+](C)C)cs2)cs1)[C@@H](C)O)[C@@H](OC1OC(CO)C(O)C(O)C1OC1OC(CO)C(O)C(OC(N)=O)C1O)c1cnc[nH]1 (stereo partly drawn) [Bleomycin] (max 10 µM) | – | – | – | – | – | – | – | – | – | – | – | – | – | – | 0.309 | 0.416 | 0.658 | 0.485 | 0.376 | 0.385 |
| NC1(C(=O)N[C@@H](CCO)c2ccc(Cl)cc2)CCN(c2nc[nH]c3nccc2-3)CC1 [AZD5363] (max 10 µM) | 0.2 | -0.203 | 0.104 | 0.272 | 0.769 | 0.353 | 0.0911 | 0.0834 | 0.161 | 0.52 | 0.298 | 0.234 | 0.393 | 0.106 | – | – | – | – | – | – |
| COc1cc2nccc(Oc3ccc(NC(=O)C4(C(=O)Nc5ccc(F)cc5)CC4)cc3)c2cc1OC [Cabozantinib] (max 10 µM) | -0.092 | 0.39 | 0.0531 | 0.138 | -0.159 | 0.0053 | -0.0852 | 0.102 | 0.0598 | 0 | 0.0446 | 0.0356 | 0.174 | 0.123 | – | – | – | – | – | – |
| CN1CCN(CCOc2cc(OC3CCOCC3)c3c(Nc4c(Cl)ccc5c4OCO5)ncnc3c2)CC1 [Saracatinib/AZD0530] (max 10 µM) | 0.875 | 0.457 | 0.0385 | 0.181 | 0.11 | 0.039 | 0.163 | 0.237 | 0.227 | 0.303 | 0.159 | 0.131 | 0.399 | 0.184 | – | – | – | – | – | – |
| CN(C)C/C=C/C(=O)Nc1ccc(C(=O)N2CCC[C@@H](Nc3ncc(Cl)c(-c4c[nH]c5ccccc45)n3)C2)cc1 [THZ531] (max 1 µM) | 0.0619 | 0.129 | 0.158 | 0.501 | 0.437 | 0.176 | 0.124 | 0.266 | 0.0896 | 0.747 | 0.0416 | 0.132 | 0.472 | 0.36 | – | – | – | – | – | – |
| O=C(CCCCCCC(=O)Nc1ccccc1)NO [Vorinostat] (max 10 µM) | 0.393 | 0.303 | 0.163 | 0.426 | 0.161 | 0.193 | 0.0343 | 0.294 | 0.186 | 0.271 | 0.151 | 0.153 | 0.276 | 0.201 | – | – | – | – | – | – |
| CO[C@H]1C[C@@H]2CC[C@@H](C)[C@@](O)(O2)C(=O)C(=O)N2CCCC[C@H]2C(=O)O[C@H]([C@H](C)C[C@@H]2CC[C@@H](OCCO)[C@H](OC)C2)CC(=O)[C@H](C)/C=C(\C)[C@@H](O)[C@@H](OC)C(=O)[C@H](C)C[C@H](C)/C=C/C=C/C=C/1C [Everolimus] (max 10 µM) | 0.984 | 0.287 | 0.314 | 0.571 | 0.714 | 0.335 | 0.669 | 0.343 | 0.432 | 1.28 | 0.593 | 0.226 | 0.598 | 0.576 | – | – | – | – | – | – |
| CN(C)C(=O)c1cc2cnc(Nc3ccc(N4CCNCC4)cn3)nc2n1C1CCCC1 [LEE011/Ribociclib] (max 10 µM) | 0.642 | -0.0536 | -0.012 | 0.576 | 0.53 | 0.0156 | 0.258 | 0.27 | 0.299 | 0.824 | 0.433 | 0.221 | 0.398 | 0.0857 | – | – | – | – | – | – |
| CCNC(=O)c1noc(-c2cc(C(C)C)c(O)cc2O)c1-c1ccc(CN2CCOCC2)cc1 [Luminespib/NVP-AUY922] (max 1 µM) | 0.881 | 0.919 | 0.633 | 0.728 | 1.07 | 0.548 | 0.362 | 0.693 | 0.704 | 0.887 | 0.559 | 0.729 | 0.536 | 0.75 | – | – | – | – | – | – |
| COc1ccc2c(c1)[C@]1(C[C@H]1c1ccc3c(/C=C/c4ccc(CN5C[C@@H](C)O[C@@H](C)C5)cc4)n[nH]c3c1)C(=O)N2 | 0.524 | 0.535 | 0.768 | 0.751 | 0.416 | 0.655 | 0.451 | 0.534 | 0.562 | 0.438 | 1.07 | 0.675 | 0.509 | 0.761 | – | – | – | – | – | – |
